Experimental data as given in patent US9662328B2, “Targeting human thymidylate kinase induces DNA repair toxicity in malignant tumor cells” (NATIONAL YANG-MING UNIVERSITY, priority 2010, dated 2017).

Molecular target: T1, hTMPK (Homo sapiens, UniProt P23919)
T1 sequence (P23919 1-212): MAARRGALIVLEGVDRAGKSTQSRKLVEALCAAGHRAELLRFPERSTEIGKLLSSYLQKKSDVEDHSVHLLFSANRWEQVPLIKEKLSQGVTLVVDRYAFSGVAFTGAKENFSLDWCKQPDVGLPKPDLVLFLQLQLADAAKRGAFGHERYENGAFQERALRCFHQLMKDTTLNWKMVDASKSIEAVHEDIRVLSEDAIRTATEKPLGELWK
Experiment: In vitro inhibitory activity against human TMPK at 2 μM
Assay type: biochemical
Details: test compounds at 2 μM concentration
Procedure: The TMPK reaction was started by adding purified hTMPK in 50 μl of TMPK assay buffer (100 mM Tris-HCl, pH 7.5, 100 mM KCl, 10 mM MgCl2, 50 μM ATP and 100 μM dTMP) in 96 wells plate at 25° C. for 10 min and terminated by adding 200 μl of DTNB (100 μM), followed by transferring 10 μl of reaction solution to a white 96-wellplate containing 90 μl of luciferase assay buffer (50 mM Glycine, 0.5 mM EDTA and 5 mM EDTA, pH 7.0, 0.1 μg of luciferase, 50 μM luciferin and 0.1% BSA). The luminescence was measured with a luminescence counter (Packard).
All reactions were performed in 96-well plates in an assay volume of 100 μl. The activity of hTMPK was measured at 25° C. using a modified NADH coupled colorimetric assay as described (Agarwal et al., 1978; Miyata et al., 2003; Ostermann et al., 2003), in which purified hTMPK was added to the buffer containing 100 mM Tris-HCl, pH 7.5, 100 mM KCl, 10 mM MgCl2, 0.5 mM phosphoenol pyruvate, 0.25 mM NADH, 5 units of lactate dehydrogenase, 4 units of pyruvate kinase, 1 mM ATP, and 200 μM dTMP. The change of NADH was measured by reading the absorbance at 340 nm. One unit of TMPK activity is defined as the conversion of […] of TMP to TDP per minute.
The in vitro inhibitory activities of test compounds (at 2 μM concentration) against human TMPK are shown in Table 3 and compared with that of YMU1 and YMU2.

SMILES	inhibition at 2 µM [%]
O=C(CI)N1CCN(C(=O)Cn2sc3ccccc3c2=O)CC1 [I-e-1, 2-[2-(4-(2-Iodoacetyl)piperazin-1-yl)-2-oxoethyl]benzo[d]isothiazol-3(2H)-one]	31 ± 5
O=C(Cn1sc2ncccc2c1=O)N1CCN(C(=O)Oc2ccc([N+](=O)[O-])cc2)CC1 [I-a-2, 4-Nitrophenyl 4-(2-(3-oxoisothiazolo[5,4-b]pyridin-2(3H)-yl)acetyl)piperazine-1-carboxylate]	80 ± 10
Cc1cc(C)c2c(=O)n(CC(=O)N3CCN(C(=O)OC(C)(C)C)CC3)sc2n1 [YMU2, reference compound]	46 ± 2
CC(C)(C)OC(=O)N1CCN(C(=O)Cn2sc3cccc(F)c3c2=O)CC1 [I-d-5, Tert-butyl 4-(2-(4-fluoro-3-oxobenzo[d]isothiazol-2(3H)-yl)acetyl)piperazine-1-carboxylate]	56 ± 4
CC(C)(C)OC(=O)N1CCN(C(=O)Cn2sc3cc(Cl)ccc3c2=O)CC1 [I-d-9, Tert-butyl 4-(2-(6-chloro-3-oxobenzo[d]isothiazol-2(3H)-yl)acetyl)piperazine-1-carboxylate]	55 ± 7
CCCCCCCCc1cn(-c2ccc3c(=O)n(CC(=O)N4CCN(C(=O)OC(C)(C)C)CC4)sc3c2)nn1 [I-d-18, Tert-butyl 4-(2-(6-(4-octyl-1H-1,2,3-triazol-1-yl)-3-oxobenzo[d]isothiazol-2(3H)-yl)acetyl)piperazine-1-carboxylate]	78 ± 7
Cc1cc(N)nc2sn(CC(=O)N3CCN(C(=O)Oc4ccc([N+](=O)[O-])cc4)CC3)c(=O)c12 [I-a-4, 4-Nitrophenyl 4-[2-(6-amino-4-methyl-3-oxoisothiazolo[5,4-b]pyridin-2(3H)-yl)acetyl]piperazine-1-carboxylate]	10 ± 7
CC(C)(C)OC(=O)N1CCN(C(=O)Cn2sc3cc(N)ccc3c2=O)CC1 [I-d-13, Tert-butyl 4-(2-(6-amino-3-oxobenzo[d]isothiazol-2(3H)-yl)acetyl)piperazine-1-carboxylate]	39 ± 14
Cc1cc(N)nc2sn(CC(=O)N3CCN(C(=O)OC(C)(C)C)CC3)c(=O)c12 [I-a-3, Tert-butyl 4-[(6-amino-4-methyl-3-oxoisothiazolo[5,4-b]pyridin-2(3H)-2-yl)acetyl]piperazine-1-carboxylate]	16 ± 5
CC(C)(C)OC(=O)N1CCN(C(=O)Cn2sc3cc(C(F)(F)F)ccc3c2=O)CC1 [I-d-12, Tert-butyl4-(2-(3-oxo-6-(trifluoromethyl)benzo[d]isothiazol-2(3H)-yl)acetyl)-piperazine-1-carboxylate]	84 ± 1
CC(C)(C)OC(=O)N1CCN(C(=O)Cn2sc3ncccc3c2=O)CC1 [I-a-1, Tert-butyl 4-(2-(3-oxoisothiazolo[5,4-b]pyridin-2(3H)-yl)acetyl)piperazine-1-carboxylate]	77 ± 4
COc1ccc2c(=O)n(CC(=O)N3CCN(C(=O)OC(C)(C)C)CC3)sc2c1 [I-d-15, Tert-butyl 4-(2-(6-methoxy-3-oxobenzo[d]isothiazol-2(3H)-yl)acetyl)piperazine-1-carboxylate]	51 ± 9
O=C(CN=C=S)N1CCN(C(=O)Cn2sc3ccccc3c2=O)CC1 [I-e-4, 2-(2-(4-(2-Isothiocyanatoacetyl)piperazin-1-yl)-2-oxoethyl)benzo[d]isothiazol-3(2H)-one]	63 ± 10
O=C(Cn1sc2cc(Br)ccc2c1=O)N1CCN(C(=O)Oc2ccc([N+](=O)[O-])cc2)CC1 [I-d-11, 4-Nitrophenyl 4-(2-(6-bromo-3-oxobenzo[d]isothiazol-2(3H)-yl)acetyl)piperazine-1-carboxylate]	86 ± 6
CCCCNC(=O)NCC(=O)N1CCN(C(=O)Cn2sc3ccccc3c2=O)CC1 [I-e-7, Butyl-3-(2-oxo-2-(4-(2-(3-oxobenzo[d]isothiazol-2(3H)-yl)acetyl)piperazin-1-yl)ethyl)urea]	50 ± 5
COc1ccc(NC(=O)NCC(=O)N2CCN(C(=O)Cn3sc4ccccc4c3=O)CC2)cc1 [I-e-6, 1-(4-Methoxyphenyl)-3-(2-oxo-2-(4-(2-(3-oxobenzo[d]isothiazol-2(3H)-yl)acetyl)piperazin-1-yl)ethyl)urea]	55 ± 7
Cc1cc(N)nc2sn(CC(=O)N3CCNCC3)c(=O)c12 [I-c-3, 6-Amino-4-methyl-2-[2-oxo-2-(piperazin-1-yl)ethyl]isothiazolo[5,4-b]pyridin-3(2H)-one]	6 ± 5
O=C(Cn1sc2cc(Br)ccc2c1=O)N1CCNCC1 [I-f-2, 6-Bromo-2-(2-oxo-2-(piperazin-1-yl)ethyl)benzo[d]isothiazol-3(2H)-one]	38 ± 14
O=C(Cn1sc2ncccc2c1=O)N1CCNCC1 [I-c-1, 2-(2-Oxo-2-(piperazin-1-yl)ethyl)isothiazolo[5,4-b]pyridin-3(2H)-one]	75 ± 11
CC(C)(C)OC(=O)N1CCN(C(=O)Cn2sc3cc(O)ccc3c2=O)CC1 [I-d-16, Tert-butyl 4-(2-(6-hydroxy-3-oxobenzo[d]isothiazol-2(3H)-yl)acetyl)piperazine-1-carboxylate]	22 ± 12
Cc1cc(C)c2c(=O)n(CC(=O)N3CCN(C(=O)CNC(=O)Nc4ccccc4)CC3)sc2n1 [I-b-2, 1-(2-(4-(2-(4,6-Dimethyl-3-oxoisothiazolo[5,4-b]pyridin-2(3H)-yl)acetyl)piperazin-1-yl)-2-oxoethyl)-3-phenylurea]	32 ± 2
CC(C)(C)OC(=O)N1CCN(C(=O)Cn2sc3ccccc3c2=O)CC1 [I-d-2, Tert-butyl 4-(2-(3-oxobenzo[d]isothiazol-2(3H)-yl)acetyl)piperazine-1-carboxylate]	100 ± 9
CC(C)(C)OC(=O)N1CCN(C(=O)Cn2sc3c(F)cccc3c2=O)CC1 [I-d-8, Tert-butyl 4-(2-(7-fluoro-3-oxobenzo[d]isothiazol-2(3H)-yl)acetyl)piperazine-1-carboxylate]	25 ± 3
O=C(Cn1sc2ccccc2c1=O)N1CCN(C(=O)OCc2ccccc2)CC1 [I-d-3, Benzyl 4-(2-(3-oxobenzo[d]isothiazol-2(3H)-yl)acetyl)piperazine-1-carboxylate]	54 ± 1
Cc1cc(C)c2c(=O)n(CC(=O)N3CCNCC3)sc2n1 [I-c-2, 4,6-Dimethyl-2-(2-oxo-2-(piperazin-1-yl)ethyl)isothiazolo[5,4-b]pyridin-3(2H)-one]	46 ± 2
CC(C)(C)OC(=O)N1CCN(C(=O)Cn2sc3cc(Br)ccc3c2=O)CC1 [I-d-10, Tert-butyl 4-(2-(6-bromo-3-oxobenzo[d]isothiazol-2(3H)-yl)acetyl)piperazine-1-carboxylate]	56
CC(C)(C)OC(=O)N1CCN(C(=O)Cn2sc3cc(N=[N+]=[N-])ccc3c2=O)CC1 [I-d-14, tert-butyl 4-(2-(6-azido-3-oxobenzo[d]isothiazol-2(3H)-yl)acetyl)piperazine-1-carboxylate]	66 ± 5
O=C(Cn1sc2ccccc2c1=O)N1CCNCC1 [I-f-1, 2-(2-Oxo-2-(piperazin-1-yl)ethyl)benzo[d]isothiazol-3(2H)-one]	34 ± 2
CC(C)(C)OC(=O)N1CCN(C(=O)Cn2sc3cc(O[Si](C)(C)C(C)(C)C)ccc3c2=O)CC1 [I-d-17, Tert-butyl 4-(2-(6-((tert-butyldimethylsilyl)oxy)-3-oxobenzo[d]isothiazol-2(3H)-yl)-acetyl)piperazine-1-carboxylate]	80 ± 4
